From ChEMBL document CHEMBL1201862, “PubChem BioAssay data set” (2004)
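Step 1: Grow cells in 96-well plates. Step 2: Expose to compound for 48 hours at 5 concentrations. Step 3: Interpolate endpoints linearly; if unreached, use highest concentration. GI50: concentration for 50% inhibition of growth.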 Calls of active or inactive are those of the source. No stated cut-off is given here; in the data, active = GI50 up to about 1.1 µM and inactive = higher.

Key:
Test in all cases: DTP human tumour cell line panel, 48 h
CAKI-1 = test system: CAKI-1
PC-3 = test system: PC-3
OVCAR-8 = test system: OVCAR-8
SK-MEL-2 = test system: SK-MEL-2
SR = test system: SR
NCI/ADR-RES = test system: NCI/ADR-RES
KM12 = test system: KM12
MOLT-4 = test system: MOLT-4
IGROV-1 = test system: IGROV-1
SNB-75 = test system: SNB-75
LOX IMVI = test system: LOX IMVI
MDA-N = test system: MDA-N
Hs-578T = test system: Hs-578T
OVCAR-5 = test system: OVCAR-5
UACC-257 = test system: UACC-257
SF-268 = test system: SF-268
M14 = test system: M14
A549 = test system: A549
A498 = test system: A498
RPMI-8226 = test system: RPMI-8226

SMILES	GI50 (CAKI-1)	GI50 (PC-3)	GI50 (OVCAR-8)	GI50 (SK-MEL-2)	GI50 (SR)	GI50 (NCI/ADR-RES)	GI50 (KM12)	GI50 (MOLT-4)	GI50 (IGROV-1)	GI50 (SNB-75)	GI50 (LOX IMVI)	GI50 (MDA-N)	GI50 (Hs-578T)	GI50 (OVCAR-5)	GI50 (UACC-257)	GI50 (SF-268)	GI50 (M14)	GI50 (A549)	GI50 (A498)	GI50 (RPMI-8226)
COc1ccc2c(c1)Cc1cc(/N=[N+](\[O-])c3ccc4c(c3)Cc3cc(OC)ccc3-4)ccc1-2	36.2 µM (inactive)	35.9 µM (inactive)	38.6 µM (inactive)	60 µM (inactive)	16.4 µM (inactive)	89.1 µM (inactive)	29.4 µM (inactive)	36.6 µM (inactive)	24 µM (inactive)	39.2 µM (inactive)	33.1 µM (inactive)	29.7 µM (inactive)	54 µM (inactive)	> 100 µM (inactive)	12.9 µM (inactive)	82.8 µM (inactive)	49.4 µM (inactive)	43.1 µM (inactive)	35.6 µM (inactive)	–
O=C(N/N=C1/C(=O)c2c3ccccc3cc3cccc1c23)c1cccc(Cl)c1	> 100 µM (inactive)	> 100 µM (inactive)	> 100 µM (inactive)	> 100 µM (inactive)	> 100 µM (inactive)	> 100 µM (inactive)	> 100 µM (inactive)	0.711 µM (active)	2.78 µM (inactive)	> 100 µM (inactive)	> 100 µM (inactive)	> 100 µM (inactive)	16 µM (inactive)	> 100 µM (inactive)	> 100 µM (inactive)	–	> 100 µM (inactive)	> 100 µM (inactive)	> 100 µM (inactive)	> 100 µM (inactive)
NC(Cc1ccccc1)C(=O)NC(Cc1ccccc1)NC(=O)C(Cc1c[nH]c2ccccc12)C(=O)O (configuration not stated)	> 100 µM (inactive)	> 100 µM (inactive)	> 100 µM (inactive)	9.35 µM (inactive)	> 100 µM (inactive)	> 100 µM (inactive)	> 100 µM (inactive)	–	> 100 µM (inactive)	> 100 µM (inactive)	> 100 µM (inactive)	> 100 µM (inactive)	37.7 µM (inactive)	> 100 µM (inactive)	> 100 µM (inactive)	> 100 µM (inactive)	> 100 µM (inactive)	> 100 µM (inactive)	> 100 µM (inactive)	> 100 µM (inactive)
CCc1c2c([nH]c(=S)c1C#N)CCC2	> 100 µM (inactive)	> 100 µM (inactive)	> 100 µM (inactive)	> 100 µM (inactive)	74.5 µM (inactive)	> 100 µM (inactive)	> 100 µM (inactive)	> 100 µM (inactive)	> 100 µM (inactive)	> 100 µM (inactive)	> 100 µM (inactive)	> 100 µM (inactive)	> 100 µM (inactive)	> 100 µM (inactive)	> 100 µM (inactive)	> 100 µM (inactive)	> 100 µM (inactive)	> 100 µM (inactive)	> 100 µM (inactive)	> 100 µM (inactive)
CCCCCCCCCCCCCCCCCCOCC(CCP(=O)(CP(=O)(O)O)Oc1ccccc1)OCCCCCCCCCCCCCCCCCC (configuration not stated)	> 100 µM (inactive)	> 100 µM (inactive)	> 100 µM (inactive)	–	> 100 µM (inactive)	> 100 µM (inactive)	> 100 µM (inactive)	> 100 µM (inactive)	> 100 µM (inactive)	> 100 µM (inactive)	> 100 µM (inactive)	> 100 µM (inactive)	> 100 µM (inactive)	> 100 µM (inactive)	> 100 µM (inactive)	> 100 µM (inactive)	> 100 µM (inactive)	> 100 µM (inactive)	> 100 µM (inactive)	> 100 µM (inactive)
COC(=O)/C(C#N)=C(/NCCN)Nc1ccccc1	> 100 µM (inactive)	> 100 µM (inactive)	> 100 µM (inactive)	> 100 µM (inactive)	> 100 µM (inactive)	> 100 µM (inactive)	–	> 100 µM (inactive)	> 100 µM (inactive)	57.3 µM (inactive)	> 100 µM (inactive)	> 100 µM (inactive)	> 100 µM (inactive)	> 100 µM (inactive)	> 100 µM (inactive)	> 100 µM (inactive)	> 100 µM (inactive)	> 100 µM (inactive)	> 100 µM (inactive)	> 100 µM (inactive)
CN(C)/C=N/S(=O)(=O)c1nn2c(C=O)c(-c3ccccc3)nc2s1	0.658 µM (active)	14.1 µM (inactive)	8.41 µM (inactive)	43 µM (inactive)	5.74 µM (inactive)	23.2 µM (inactive)	22.6 µM (inactive)	3.21 µM (inactive)	–	59.7 µM (inactive)	14.7 µM (inactive)	10.2 µM (inactive)	19.5 µM (inactive)	47.1 µM (inactive)	24.2 µM (inactive)	29.5 µM (inactive)	2.51 µM (inactive)	26.6 µM (inactive)	67.6 µM (inactive)	3.43 µM (inactive)
CC(=O)Oc1ccc2oc(=O)cc(C)c2c1	> 100 µM (inactive)	> 10 µM (inactive)	> 100 µM (inactive)	> 100 µM (inactive)	> 100 µM (inactive)	> 100 µM (inactive)	> 100 µM (inactive)	> 100 µM (inactive)	> 100 µM (inactive)	> 100 µM (inactive)	> 100 µM (inactive)	> 100 µM (inactive)	> 100 µM (inactive)	–	> 100 µM (inactive)	> 100 µM (inactive)	> 100 µM (inactive)	> 100 µM (inactive)	> 100 µM (inactive)	> 100 µM (inactive)
c1ccc2c(c1)Sc1nccc3ccnc-2c13	7.13 µM (inactive)	39.2 µM (inactive)	21.9 µM (inactive)	> 100 µM (inactive)	11.9 µM (inactive)	25.2 µM (inactive)	61 µM (inactive)	8.26 µM (inactive)	27.7 µM (inactive)	15.2 µM (inactive)	28.9 µM (inactive)	57.3 µM (inactive)	14 µM (inactive)	> 100 µM (inactive)	73.6 µM (inactive)	18.7 µM (inactive)	79.1 µM (inactive)	–	16.6 µM (inactive)	55.5 µM (inactive)
CCOC(=O)C(NC(=O)CC(C)C)(NC(C)C)C(F)(F)F (configuration not stated)	> 100 µM (inactive)	> 100 µM (inactive)	> 100 µM (inactive)	> 100 µM (inactive)	> 100 µM (inactive)	> 100 µM (inactive)	> 100 µM (inactive)	> 100 µM (inactive)	> 100 µM (inactive)	–	> 100 µM (inactive)	> 100 µM (inactive)	> 100 µM (inactive)	> 100 µM (inactive)	> 100 µM (inactive)	> 100 µM (inactive)	> 100 µM (inactive)	> 100 µM (inactive)	> 100 µM (inactive)	> 100 µM (inactive)
CCOC(=O)c1sc2[n+](c1C)C(=O)/C(=C/c1ccc([N+](=O)[O-])cc1)S2	15.1 µM (inactive)	18.9 µM (inactive)	19.5 µM (inactive)	20.7 µM (inactive)	24.3 µM (inactive)	13.8 µM (inactive)	18.4 µM (inactive)	22.2 µM (inactive)	–	20.5 µM (inactive)	25.2 µM (inactive)	27.7 µM (inactive)	23.2 µM (inactive)	31.7 µM (inactive)	28.1 µM (inactive)	12.9 µM (inactive)	31.6 µM (inactive)	23.5 µM (inactive)	> 100 µM (inactive)	10.4 µM (inactive)
O=C(CSc1nc2ccccc2s1)c1sc2sc3ccccc3[n+]2c1[O-]	> 100 µM (inactive)	> 100 µM (inactive)	> 100 µM (inactive)	> 100 µM (inactive)	> 100 µM (inactive)	> 100 µM (inactive)	> 100 µM (inactive)	> 100 µM (inactive)	> 100 µM (inactive)	–	> 100 µM (inactive)	> 100 µM (inactive)	> 100 µM (inactive)	> 100 µM (inactive)	> 100 µM (inactive)	> 100 µM (inactive)	> 100 µM (inactive)	> 100 µM (inactive)	> 100 µM (inactive)	> 100 µM (inactive)
O=C1c2cccc(O)c2C(=O)c2c(OC3OC(CO)C(O)C(O)C3O)cccc21 (configuration not stated)	55.5 µM (inactive)	24.5 µM (inactive)	31.8 µM (inactive)	46.8 µM (inactive)	32.4 µM (inactive)	17 µM (inactive)	30.3 µM (inactive)	–	39.2 µM (inactive)	24 µM (inactive)	37.5 µM (inactive)	28.6 µM (inactive)	17.8 µM (inactive)	51.6 µM (inactive)	19.5 µM (inactive)	22.9 µM (inactive)	21.5 µM (inactive)	27.3 µM (inactive)	> 100 µM (inactive)	23.9 µM (inactive)
CC(=O)Oc1ccc(/C=C/C(=O)O[C@@H](C(=O)O)[C@@H](OC(=O)/C=C/c2ccc(OC(C)=O)c(OC(C)=O)c2)C(=O)O)cc1OC(C)=O	> 100 µM (inactive)	> 100 µM (inactive)	> 100 µM (inactive)	> 100 µM (inactive)	> 100 µM (inactive)	> 100 µM (inactive)	> 100 µM (inactive)	–	> 100 µM (inactive)	82.8 µM (inactive)	> 100 µM (inactive)	> 100 µM (inactive)	> 100 µM (inactive)	> 100 µM (inactive)	> 100 µM (inactive)	> 100 µM (inactive)	> 100 µM (inactive)	> 100 µM (inactive)	> 100 µM (inactive)	> 100 µM (inactive)
